In ChEMBL document CHEMBL3243922, “Synthesis, redox characteristics, and in vitro norepinephrine uptake inhibiting properties of 2-(2-mercapto-4,5-dihydroxyphenyl)ethylamine (6-mercaptodopamine)” (J Med Chem, 1979):

What was measured:
Conditions in all cases: in vivo
Rattus norvegicus [1] = assay: Pressor activity in iv dosed normotensive Sprague-Dawley rat assessed as dose required for increasing systolic blood pressure […] 30 mm Hg; assay type: organism-based, Artery
Rattus norvegicus [2] = assay: Neurotoxicity in Sprague-Dawley rat heart atria assessed as inhibition of [3H]norepinephrine uptake at 20 to 160 mg/kg, iv after 24 hrs by scintillation counting analysis; assay type: toxicity, organism-based; set-up: dose 20-160 mg/kg, route intravenous
Rattus norvegicus [3] = assay: Central neurotoxicity in iv dosed Sprague-Dawley rat brain hypothalamus assessed as inhibition of [3H]norepinephrine uptake after 24 hrs by scintillation counting analysis; assay type: organism-based
Rattus norvegicus [4] = assay: Neurotoxicity in Sprague-Dawley rat heart atria assessed as inhibition of [3H]norepinephrine uptake at 10 mg/kg, iv after 24 hrs by scintillation counting analysis; assay type: toxicity, organism-based; set-up: dose 10 mg/kg, route intravenous

**Q.** For `C[C@H](N)Cc1ccc(O)c(O)c1`, which Activity (Rattus norvegicus [1]) is on record?
**A.** The Activity was 3.1 µg.

**Q.** Which Activity (Rattus norvegicus [1]) does the source give for `NCCc1ccc(O)c(O)c1` [DOPAMINE] here?
**A.** Its Activity is 2.9 µg.

**Q.** Which results are given for `Cl.NCCc1cc(O)c(O)cc1S`?
**A.** Activity (Rattus norvegicus [1]): 1.3 ×10⁻⁴ g; Activity (Rattus norvegicus [2]): Toxic; Activity (Rattus norvegicus [3]): Non-toxic

**Q.** How did the Activity (Rattus norvegicus [1]) turn out when `CC(N)Cc1cc(O)c(O)cc1O` (stereo not drawn) was run?
**A.** Its Activity is 6 ×10⁻⁵ g.

**Q.** With `NCCc1cc(O)c(O)cc1O` [OXIDOPAMINE] as the compound, how does the Activity (Rattus norvegicus [1]) read?
**A.** Its Activity is 1.6 ×10⁻⁵ g.

**Q.** What about the Activity (Rattus norvegicus [4]) of the same compound?
**A.** The Activity was “Toxic”.
